In EP0665223A1, “Antitumor agent, novel 3(2H)-pyridazinone derivatives and their preparation” (TAKEDA CHEMICAL INDUSTRIES, LTD., priority 1994, dated 1995):

What was measured:
[1] = tested on: pancreatic cancer cell AsPC-1; test: Suppressing proliferation of pancreatic cancer cell AsPC-1 in vitro (MTT, number of living cells); format: cell-based; conditions: Homo sapiens, ASPC1, 72 h, AsPC-1, RPMI 1640 medium, incubated 3 days with test compound
Experimental: (§1) A cell suspension of pancreatic cancer cell AsPC-1 (20000/ml) in RPMI 1640 medium (Flow Laboratories) supplemented with 10% of inactivated fetal calf serum, 1 mM of sodium pyruvate and 25 mM of HEPES [2-{4-(2-hydroxyethyl)-1-piperazinyl}ethanesulfonic acid] was added to 96-well micro-culture plates (50ul/well). The culture plates were incubated at 37°C in a 5% CO₂ incubator. On the following day, the solution of each test compound dissolved in dimethylformamide and diluted (3-fold steps) was added (50 ul/well), which was incubated for further 3 days. The culture broth containing the test compounds was eliminated, and the cells were washed, to which was added a solution of MTT pigment, and the number of living cells was calculated [Tada et al. J. Immunol. Methods, 93 p.157 (1986)]. The number of cells in the control group containing no test compound was assumed to be 100%, and the respective ratios of cell numbers in groups containing the respective test compounds were calculated to thereby determine the concentrations (IC₅₀ value) of the respective test compounds necessary to suppress the number of living cells to 50% of that of the control group.

[2] = tested on: pancreatic cancer cell strain PC-3; test: Suppressing proliferation of PC-3 cells in vitro (MTT, number of living cells); format: cell-based; conditions: 96 h, PC-3, F-12K medium, incubated 4 days with test compound
Experimental: as §1
For the test of pancreatic cancer cell strain PC-3, the same method in the case of AcPC-1 was employed excepting the use of F-12K medium containing 10% inactivated fetal calf serum (Flow Laboratories) and change of the incubation period after adding the test compounds to 4 days, to thereby determine the IC₅₀ value (nm).

CC(C)(C)n1ncc(SCc2ccc(-c3ccccc3)cc2)c(Cl)c1=O [Compound 3, 2-t-butyl-4-chloro-5-(4-phenyl)benzylthio-3(2H)pyridazinone]
IC50 [1]: < 1.52 nM
IC50 [2]: 2 nM

CC(C)(C)n1ncc(SCc2ccc3ccccc3c2)c(Cl)c1=O [Compound 4, 2-t-butyl-4-chloro-5-(2-naphthyl)methylthio-3(2H)pyridazinone]
IC50 [1]: 15 nM
IC50 [2]: < 1.52 nM

CC(C)(C)n1ncc(SCC=Cc2ccccc2)c(Cl)c1=O [Compound 6, 2-t-butyl-4-chloro-5-{(3-phenyl)-2-propenylthio}-3(2H)pyridazinone]
IC50 [1]: 290 nM
IC50 [2]: 53 nM

CC(C)(C)n1ncc(SCc2ccc3ccccc3n2)c(Cl)c1=O [Compound 12, 2-t-butyl-4-chloro-5-(2-quinolyl)methylthio-3(2H)pyridazinone]
IC50 [1]: 74 nM
IC50 [2]: 42 nM

CC(C)(C)n1ncc(SCc2ccc(-c3ccccc3C#N)cc2)c(Cl)c1=O [Compound 13, 2-t-butyl-4-chloro-5-{4-(2-cyanophenyl)} benzylthio-3(2H)pyridazinone]
IC50 [1]: < 1.52 nM
IC50 [2]: < 1.52 nM

CC(C)(C)n1ncc(SCc2ccc(C(F)(F)F)cc2)c(Cl)c1=O [Compound 17, 2-t-butyl-4-chloro-5-(4-trifluoromethyl) benzylthio-3(2H)pyridazinone]
IC50 [1]: 59 nM
IC50 [2]: 56 nM

CC(C)(C)n1ncc(OCc2ccc(-c3ccccc3)cc2)c(Cl)c1=O [Compound 18, 2-t-butyl-4-chloro-5-(4-phenyl)benzyloxy-3(2H)pyridazinone]
IC50 [1]: < 1.52 nM
IC50 [2]: < 1.52 nM

CC(C)(C)n1ncc(OCc2ccc3ccccc3c2)c(Cl)c1=O [Compound 20, 2-t-butyl-4-chloro-5-(2-naphthyl)methyloxy-3(2H)pyridazinone]
IC50 [1]: 440 nM
IC50 [2]: 5 nM

Cc1c(SCc2ccc(C(C)(C)C)cc2)cnn(C(C)(C)C)c1=O [Compound 27, 2-t-butyl-5-(4-t-butyl)benzylthio-4-methyl-3(2H)pyridazinone]
IC50 [1]: 9 nM
IC50 [2]: < 1.52 nM

Cc1c(OCc2ccc(C(C)(C)C)cc2)cnn(C(C)(C)C)c1=O [Compound 31, 2-t-butyl-5-(4-t-butyl)benzyloxy-4-methyl-3(2H)pyridazinone]
IC50 [1]: 84 nM
IC50 [2]: 25 nM

CC(C)(C)n1ncc(SCc2ccc(-c3ccccn3)cc2)c(Cl)c1=O [Compound 39, 2-t-butyl-4-chloro-5-{4-(2-pyridyl)benzylthio}-3(2H)-pyridazinone]
IC50 [1]: < 1.52 nM
IC50 [2]: 4 nM

CC(C)(C)n1ncc(OCc2ccc(-c3ccccn3)cc2)c(Cl)c1=O [Compound 42, 2-t-butyl-4-chloro-5-{4-(2-pyridyl)benzyloxy}-3(2H)-pyridazinone]
IC50 [1]: 5 nM
IC50 [2]: 2 nM

CC(C)(C)n1ncc(SC(CO)c2ccccc2)c(Cl)c1=O (stereo not shown) [Compound 48, 2-t-butyl-4-chloro-5-(2-hydroxy-1-phenyl) ethylthio-3(2H)-pyridazinone]
IC50 [1]: 67 nM
IC50 [2]: 45 nM

CC(C)(C)n1ncc(OCc2ccc(OCc3ccc(F)cc3)nc2)c(Cl)c1=O [Compound 49, 2-t-butyl-4-chloro-5-[6-(4-fluorobenzyloxy)-3-pyridyl]methoxy-3(2H)-pyridazinone]
IC50 [1]: 120 nM
IC50 [2]: < 1.52 nM

CC(C)(C)n1ncc(SCc2ccc(OCc3ccc(F)cc3)nc2)c(Cl)c1=O [Compound 50, 2-t-butyl-4-chloro-5-[6-(4-fluorobenzyloxy)-3-pyridyl]methylthio-3(2H)-pyridazinone]
IC50 [1]: 11 nM
IC50 [2]: < 1.52 nM

CC(C)(C)n1ncc(SCc2ccc(C(=O)c3ccc(Cl)cc3)cc2)c(Cl)c1=O [Compound 72, 2-t-butyl-4-chloro-5-[4-(4-chlorobenzoyl)benzylthio]-3(2H)-pyridazinone]
IC50 [1]: < 1.52 nM
IC50 [2]: < 1.52 nM

CC(C)(C)n1ncc(OCc2ccc(C(=O)c3ccc(Cl)cc3)cc2)c(Cl)c1=O [Compound 73, 2-t-butyl-4-chloro-5-[4-(4-chlorobenzoyl)benzyloxy]-3(2H)-pyridazinone]
IC50 [1]: 8 nM
IC50 [2]: < 1.52 nM

CC(C)(C)n1ncc(SCc2ccc(OCc3ccccc3)cc2)c(Cl)c1=O [Compound 74, 5-(4-benzyloxybenzylthio)-2-t-butyl-4-chloro-3(2H)-pyridazinone]
IC50 [1]: 29 nM
IC50 [2]: < 1.52 nM

CC(C)(C)n1ncc(OCC(O)c2ccc(-c3ccccc3)cc2)c(Cl)c1=O (stereo not shown) [Compound 82, 2-t-butyl-4-chloro-5-[2-hydroxy-2-(4-biphenyl)]ethoxy-3(2H)-pyridazinone]
IC50 [1]: 480 nM
IC50 [2]: 27 nM

CC(C)(C)n1ncc(OC(CO)c2ccc(-c3ccccc3)cc2)c(Cl)c1=O (stereo not shown) [Compound 83, 2-t-butyl-4-chloro-5-[2-hydroxy-1-(43-biphenyl)]ethoxy-3(2H)-pyridazinone]
IC50 [1]: 73 nM
IC50 [2]: 2 nM

CC(C)(C)n1ncc(SC(CO)c2ccc(-c3ccccc3)cc2)c(Cl)c1=O (stereo not shown) [Compound 85, 2-t-butyl-4-chloro-5-[2-hydroxy-1-(p-biphenyl)]ethylthio-3(2H)-pyridazinone]
IC50 [1]: 12 nM
IC50 [2]: < 1.52 nM

CC(C)(C)OC(=O)Nc1cc(-c2ccc(CSc3cnn(C(C)(C)C)c(=O)c3Cl)cc2)ccn1 [Compound 90, 2-t-butyl-4-chloro-5-[4-[4-(2-t-butoxycarbonylamino)pyridyl]benzylthio]-3(2H)-pyridazinone]
IC50 [1]: 270 nM
IC50 [2]: 64 nM

CC(C)(C)OC(=O)Nc1cc(-c2ccc(COc3cnn(C(C)(C)C)c(=O)c3Cl)cc2)ccn1 [Compound 91]
IC50 [1]: 560 nM
IC50 [2]: 92 nM

CC(C)(C)n1ncc(SCc2ccc(-c3ccnc(N)c3)cc2)c(Cl)c1=O [Compound 92, 5-[4-[4-(2-amino)pyridyl]benzylthio]-2-t-butyl-4-chloro-3(2H)-pyridazinone]
IC50 [1]: 28 nM
IC50 [2]: < 1.52 nM

CC(C)(C)n1ncc(OCc2ccc(-c3ccnc(N)c3)cc2)c(Cl)c1=O [Compound 93, 5-[4-[4-(2-amino)pyridyl]benzyloxy]-2-t-butyl-4-chloro-3(2H)-pyridazinone]
IC50 [1]: 770 nM
IC50 [2]: 110 nM

CC(C)(C)n1ncc(SCc2ccc(-c3ncccn3)cc2)c(Cl)c1=O [Compound 96, 2-t-butyl-4-chloro-5-[4-(2-pyrimidyl)]benzylthio-3(2H)-pyridazine]
IC50 [1]: 16 nM
IC50 [2]: < 1.52 nM

CC(C)(C)n1ncc(OCc2ccc(-c3ncccn3)cc2)c(Cl)c1=O [Compound 97, 2-t-butyl-4-chloro-5-[4-(2-pyrimidyl)]benzyloxy-3(2H)-pyridazine]
IC50 [1]: 280 nM
IC50 [2]: < 1.52 nM

COc1cc(OC)nc(-c2ccc(CSc3cnn(C(C)(C)C)c(=O)c3Cl)cc2)n1 [Compound 98, 2-t-butyl-4-chloro-5-[4-[2-(4,6-dimethoxy)pyrimidyl]]benzylthio-3(2H)-pyridazinone]
IC50 [1]: 54 nM
IC50 [2]: 6 nM

COc1cc(OC)nc(-c2ccc(COc3cnn(C(C)(C)C)c(=O)c3Cl)cc2)n1 [Compound 99, 2-t-butyl-4-chloro-5-[4-[2-(4,6-dimethoxy)pyrimidyl]]benzyloxy-3(2H)-pyridazinone]
IC50 [1]: 230 nM
IC50 [2]: 52 nM

CC(C)(C)n1ncc(SCc2ccc(-c3csc(N)n3)cc2)c(Cl)c1=O [Compound 102]
IC50 [1]: 33 nM
IC50 [2]: 2 nM

CC(C)(C)n1ncc(OCc2ccc(-c3csc(N)n3)cc2)c(Cl)c1=O [Compound 103]
IC50 [1]: 250 nM
IC50 [2]: 210 nM

Cc1c(OCc2ccc(-c3ccccn3)cc2)cnn(C(C)(C)C)c1=O [Compound 104, 2-t-butyl-4-methyl-5-[4-(2-pyridyl)]benzyloxy-3(2H)-pyridazinone]
IC50 [1]: 85 nM
IC50 [2]: < 1.52 nM

CC(C)(C)n1ncc(SCc2ccc(-c3cc[nH]n3)cc2)c(Cl)c1=O [Compound 111, 2-t-butyl-4-chloro-5-[4-(1H-pyrazol-3-yl)benzylthio]-3(2H)-pyridazinone]
IC50 [1]: 550 nM
IC50 [2]: 3 nM

CC(C)(C)n1ncc(SCc2ccc(-c3ccno3)cc2)c(Cl)c1=O [Compound 113, 2-t-butyl-4-chloro-5-[4-(1,2-oxazol-5-yl)benzylthio]-3(2H)-pyridazinone]
IC50 [1]: 120 nM
IC50 [2]: < 1.52 nM

CC(C)(C)n1ncc(SCc2ccc(-c3csnn3)cc2)c(Cl)c1=O [Compound 115, 2-t-butyl-4-chloro-5-[4-(1,2,3-thiadiazol-4-yl)benzylthio]-3(2H)-pyridazinone]
IC50 [1]: 49 nM
IC50 [2]: < 1.52 nM

CC(C)(C)n1ncc(OCc2ccc(-c3csnn3)cc2)c(Cl)c1=O [Compound 116, 2-t-butyl-4-chloro-5-[4-(1,2,3-thiadiazol-4-yl)benzyloxy]-3(2H)-pyridazinone]
IC50 [1]: 370 nM
IC50 [2]: 14 nM

CC(C)(C)n1ncc(SCc2ccc(-c3ncns3)cc2)c(Cl)c1=O [Compound 117, 2-t-butyl-4-chloro-5-[4-(1,2,4-thiadiazol-5-yl)benzylthio]-3(2H)-pyridazinone]
IC50 [1]: 100 nM
IC50 [2]: 2 nM

CC(C)(C)n1ncc(SCc2ccc(-c3cnco3)cc2)c(Cl)c1=O [Compound 119, 2-t-butyl-4-chloro-5-[4-(1,3-oxazol-5-yl)benzylthio]-3(2H)-pyridazinone]
IC50 [1]: 370 nM
IC50 [2]: < 1.52 nM
